Where “and” joins values, the source holds several entries; their conditions need not be identical. Identical values can stand only once.
Experiments:
[1] = biological target: T1, NS3/4A protease genotype 1a (Hepatitis C virus genotype 1a, UniProt P27958); test: Inhibition assay with NS3/4A from genotype 1a; format: biochemical; details: IC50 NS3/4A genotype 1a
T1 construct: against the NS3/4A protease domains from three additional HCV genotypes (1a, 2a, and 4d); purchased Anaspec
Experimental: (§1) The inhibitory activity of the final hit compounds from HTS were tested against three other HCV genotypes (1a, 2a, and 4d), along with a control (genotype 1b) and five NS3 drug-resistant mutants. Eight full-length NS3 mutants (V36M, R155K, A156T, A156S, 156V, V36A, T54A, and R155T) were generated by mutagenesis and purified, and the three HCV NS3/4A protease genotypes were purchased from Anaspec. Unfortunately the enzyme activities of the three mutants V36A, T54A, and R155T were much less than that of the rest of the mutants and were insufficient for testing, therefore mutant studies were done with the five active mutants. Continuous kinetic assays were performed against all hit compounds in the same way as the wild-type NS3/4A. As a control, full-length NS3/4A (genotype 1b) was tested under the same conditions for direct comparison for each plate.

NS3 protease domain = biological target: T2, NS3 protease domain (Hepatitis C virus genotype 1b, UniProt Q9WMX2); test: Fluorescence enzymatic assay with NS3 protease domain alone; format: biochemical; details: NS3/4A protease domain only; read-out: IC50 NS3 protease domain
T2 construct: the full-length NS3/4A and the NS3/4A protease domain alone
Experimental: (§2) A series of compound concentrations (0 to 200 µM final concentration at 2-fold serial dilution) in 100% DMSO were prepared in a 384-well plate. 20 µL of enzyme solution was distributed to wells, and 0.5 µL of varying concentration of compounds were added and incubated for 5 minutes. The enzyme reaction was initiated by adding 5 µL of the substrate, and its activity was continuously monitored for 6 minutes. The IC50 values were calculated by fitting with the Hill equation (1), with OriginPro 8.5 (OriginLab, Inc.) where y is percent inhibition, x is inhibitor concentration, n is the slope of the concentration–response curve (Hill slope), and Vmax is maximal inhibition from two to four independent assays. [drawing 1] (1)

[2] = biological target: T3, HCV replicon cell lysate sg 2a (NS3) (Hepatitis C virus genotype 2a, UniProt Q99IB8); test: Whole cell lysate inhibition assay, HCV subgenomic replicon 2a; format: biochemical
T3 construct: expressed in transfected cells; host or cells: Huh7 cells stably replicating the JFH-1 subgenomic replicon; whole cell lysate
Experimental: (§3) Huh7-1 cells (also known as Huh7/scr cells) were obtained from F.V. Chisari (The Scripps Research Institute, La Jolla, CA). Clone B HCV sub-genotype 1b Huh7 cells were obtained from the NIH AIDS Research and Reference Reagent Program and have been previously described. Huh7 cells stably replicating the sub-genotype 2a HCV JFH-1 replicon were generated as previously described. All cells were cultured in complete Dulbecco’s modified Eagle’s medium (DMEM) supplemented with 10% fetal bovine serum, 100 units/mL penicillin, […] streptomycin, and 2 mM L-glutamine. HCV replicon cells were maintained in 500 µg/mL Geneticin (Invitrogen). For NS3 inhibition analysis, lysates from parental Huh7 cells and HCV replicon cells were harvested on ice in pre-chilled FRET cell lysis buffer (50 mM Tris-HCl, pH 7.5; 150 mM NaCl, 2 mM EDTA, 1.25% Triton X-100). Lysates were brought to room temperature and mixed 1∶1 with 2× FRET assay buffer (100 mM Tris-HCl, pH 7.5, 300 mM NaCl, 4 mM EDTA, 2.5% Triton X-100, 10 mM GSH, and 4 µM substrate). Fluorescence intensity was continuously monitored for 1 hour, and IC50 values were determined in the same way as biochemical assays.

[3] = biological target: T4, full-length NS3/4A genotype 1b mutant A156T (Hepatitis C virus genotype 1b, UniProt Q9WMX2, A1182T); test: Inhibition assay with drug-resistant mutant A156T; format: biochemical
T4 construct: wild-type HCV NS3 (HCV polyprotein residues 1027–1657); His-tag (N); made in house
Experimental: (§4) The full-length genes of wild-type HCV NS3 (HCV polyprotein residues 1027–1657) with a his-tag at the N-terminus and NS4A (residues 1658–1711) with no tag were cloned, co-expressed, and purified as described. Eight NS3 drug resistant mutants (V36M, V36A, T54A, R155K, R155T, A156T, A156S, and 156V) were generated by mutagenesis using full-length, wild-type NS3-containing recombinant plasmid (pETDuet-1/FL NS3/4A) as a template. The over-expression and purification of all mutants were performed by the same method as the wild-type with minor modifications.
as §1, with “As a control, full-length NS3/4A (genotype 1b) was tested under the same conditions for direct comparison for each plate.” left out

[4] = biological target: T5, full-length NS3/4A protease (genotype 1b) (Hepatitis C virus genotype 1b, UniProt Q9WMX2); test: biochemical
T5 construct: wild-type HCV NS3 (HCV polyprotein residues 1027–1657); His-tag (N); made in house
Experimental: All assays were done in duplicate in black 384-well plates (Matrix Technologies). […] 200 nL of 10 mM compound (50 µM final concentrations) were then added and incubated for 5 minutes. Enzyme reactions were initiated with 10 µL of substrate Ac-DE-Dap(QXL520)-EE-Abu-ψ-[COO]AS-C(5-FAMsp)-NH2 (Anaspec) (1 µM final concentration), incubated for 6 minutes, and quenched by 10 µL of 10% SDS as a stop solution. Fluorescence intensity was monitored with a POLARstar OPTIMA microplate reader (BMG LABTECH). Each plate contained a total of 32 positive and 32 negative controls.
as §2

[5] = biological target: T6, HCV replicon cell lysate sg 1b (NS3) (Hepatitis C virus genotype 1b, UniProt Q9WMX2); test: Whole cell lysate inhibition assay, HCV subgenomic replicon 1b; format: biochemical
T6 construct: host or cells: Huh7 Clone B cells stably replicating an HCV 1b subgenomic replicon; whole cell lysate
Experimental: as §3

[6] = biological target: T7, full-length NS3/4A genotype 1b mutant A156V (Hepatitis C virus genotype 1b, UniProt Q9WMX2, A1182V); test: Inhibition assay with drug-resistant mutant A156V; format: biochemical; details: genotype 1b full-length mutant
T7 construct: wild-type HCV NS3 (HCV polyprotein residues 1027–1657); His-tag (N); made in house
Experimental: as §4
as §1, with “As a control, full-length NS3/4A (genotype 1b) was tested under the same conditions for direct comparison for each plate.” left out

[7] = biological target: T8, full-length NS3/4A genotype 1b mutant R155K (Hepatitis C virus genotype 1b, UniProt Q9WMX2, R1181K); test: Inhibition assay with drug-resistant mutant R155K; format: biochemical
T8 construct: wild-type HCV NS3 (HCV polyprotein residues 1027–1657); His-tag (N); made in house
Experimental: as §4
as §1, with “As a control, full-length NS3/4A (genotype 1b) was tested under the same conditions for direct comparison for each plate.” left out

[8] = biological target: T9, NS3/4A protease genotype 2a (Hepatitis C virus genotype 2a, UniProt Q99IB8); test: Inhibition assay with NS3/4A from genotype 2a; format: biochemical
T9 construct: against the NS3/4A protease domains from three additional HCV genotypes (1a, 2a, and 4d); purchased Anaspec
Experimental: as §1

[9] = biological target: T10, full-length NS3/4A genotype 1b mutant A156S (Hepatitis C virus genotype 1b, UniProt Q9WMX2, A1182S); test: Inhibition assay with drug-resistant mutant A156S; format: biochemical
T10 construct: wild-type HCV NS3 (HCV polyprotein residues 1027–1657); His-tag (N); made in house
Experimental: as §4
as §1, with “As a control, full-length NS3/4A (genotype 1b) was tested under the same conditions for direct comparison for each plate.” left out

[10] = biological target: T11, full-length NS3/4A genotype 1b mutant V36M (Hepatitis C virus genotype 1b, UniProt Q9WMX2, V1062M); test: Inhibition assay with drug-resistant mutant V36M; format: biochemical; details: genotype 1b full-length mutant
T11 construct: wild-type HCV NS3 (HCV polyprotein residues 1027–1657); His-tag (N); made in house
Experimental: as §4
as §1, with “As a control, full-length NS3/4A (genotype 1b) was tested under the same conditions for direct comparison for each plate.” left out

[11] = biological target: NS3/4A protease genotype 4d (Hepatitis C virus subtype 4d, UniProt Q1ZZ56); test: Inhibition assay with NS3/4A from genotype 4d; format: biochemical
Experimental: as §1

Cc1cc(NC(=O)Cc2csc(NS(=O)(=O)c3ccccc3)n2)ccc1Br [Compound 12]
IC50 [1]: < 20 µM | IC50 (NS3 protease domain): 9.3 ± 1.6 µM | fold increase of IC50, whole cell lysate 2a vs biochemical assay ([2]; sg2a lysate compared to purified enzyme): 10–20 fold | IC50 ([2]; whole cell lysate, subgenomic replicon 2a): < 120 µM and 115 µM | IC50 [3]: ≤ 20 µM | LE ([4]; calculated with IC50 values from the full-length NS3/4A): 0.29 kcal/mol/heavy atom | IC50 ([4]; purified full-length NS3/4A, genotype 1b wild-type, read-out: IC50 Full-length NS3/4A): 2.2 ± 0.4 µM | fold increase of IC50, whole cell lysate 1b vs biochemical assay ([5]; sg1b lysate compared to purified enzyme): 10–20 fold | IC50 ([5]; whole cell lysate, subgenomic replicon 1b): < 120 µM and 29.3 µM | IC50 [6]: ≤ 20 µM | IC50 [7]: ≤ 20 µM | IC50 ([8]; IC50 Purified NS3/4A Sub-genotype 2a, genotype 2a): 12.7 ± 1.2 µM | fold less effective against genotype 2a than 1b in the biochemical assay ([8]; purified enzymes): ~6 fold | IC50 [9]: ≤ 20 µM | IC50 [10]: ≤ 20 µM | IC50 [11]: < 20 µM

— article PMC3793977, “High-Throughput Screening (HTS) and Hit Validation to Identify Small Molecule Inhibitors with Activity against NS3/4A proteases from Multiple Hepatitis C Virus Genotypes” (PLoS ONE, 2013)
